Viability data for 6 compounds are collected here from patent publication US20220153751A1, “BIFUNCTIONAL COMPOUNDS” (BioTheryX, Inc., priority 2018, published 2022).

The structures appear in SMILES notation. Where only a bound is given, the exact number is not on record here.

In the experiment the test system is MOLM-13 cells. The experiment is described as follows: MOLM-13 cell viability assay (CellTiter-Glo). The class given is cell-based. The conditions noted are these: Homo sapiens, MOLM-13, 72 h, 3 days, read-out: MOLM-13 Cell Viability % DMSO at 1 μM. The procedure:
MOLM-13 cells were cultured in RPMI 1640 media supplemented with 10% fetal bovine serum, streptomycin and penicillin, and were plated in walled 96-well plates at 2500 cells/well. Cells were incubated in DMSO (control) or the indicated compound for 3 days at 37° C. and 5% CO2. Following the incubation period, 100 μL of CellTiterGlow (CTG) reagent (CellTiter-Glo® Luminescent Cell Viability Assay, Promega (Madison, Wis.)) was added to each well. Following a 10 minutes incubation with shaking, luminescence was measured using the EnVision Multimode plate reader.
The MOLM-13 cell viability values as % DMSO are reported as “A”, “B”, “C”, or “D”. “A” represents a % viability value of less than 50% (value <50%). “B” represents a % viability value of equal to or more than 50% and less than 70% (50%≤value<70%). “C” represents a % viability value of equal to or more than 70% and less than 90% (70%≤value<90%). “D” represents a % viability value of equal or more than 90% (value ≥90%).
Background: Cellular ATP, detected with luciferase, serves as a proxy for viable cell number.
The viability is a per cent measure of how many cells are alive, often set against a control. `Cn1ncc(-c2nc(N[C@H]3CC[C@H](NCC(=O)NCCCCNCC(=O)NCc4scc5c4C(=O)N(C4CCC(=O)NC4=O)C5=O)CC3)ncc2F)c1CC1CC1` (stereo partly drawn) [Compound 48, 2-(((1r,4r)-4-((4-(5-(cyclopropylmethyl)-1-methyl-1H-pyrazol-4-yl)-5-fluoropyrimidin-2-yl)amino)cyclohexyl)amino)-N-(4-((2-(((5-(2,6-dioxopiperidin-3-yl)-4,6-dioxo-5,6-dihydro-4H-thieno[3,4-c]pyrrol-1-yl)methyl)amino)-2-oxoethyl)amino)butyl)acetamide]: the viability at 1 µM is > 90%.

With `CC(C)(C)c1cnc(CSc2cnc(NC(=O)C3CCN(CC(=O)NCCCCCNC(=O)NCc4cc5c(s4)C(=O)N(C4CCC(=O)NC4=O)C5)CC3)s2)o1` (stereo not drawn) [Compound 1, 3-[8-Oxo-3-({3-[5-(2-{4-[(5-{[5-(tert-butyl)-1,3-oxazol-2-yl]methylthio}-1,3-thiazol-2-ylamino)carbonyl]-1-piperidyl}acetylamino)pentyl]ureido}methyl)-2-thia-7-azabicyclo[3.3.0]octa-1(5),3-dien-7-yl]-2,6-piperidinedione], the viability at 1 µM is > 90%.

For `CN(CCNCC(=O)NCc1cc2c(s1)C(=O)N(C1CCC(=O)NC1=O)C2)CCNC(=O)CN1CCC(C(=O)Nc2ncc(SCc3ncc(C(C)(C)C)o3)s2)CC1` (stereo not drawn) [Compound 47, N-(5-(((5-(tert-butyl)oxazol-2-yl)methyl)thio)thiazol-2-yl)-1-(1-(5-(2,6-dioxopiperidin-3-yl)-6-oxo-5,6-dihydro-4H-thieno[2,3-c]pyrrol-2-yl)-8-methyl-3,12-dioxo-2,5,8,11-tetraazatridecan-13-yl)piperidine-4-carboxamide], the viability at 1 µM was in the range of 70 to 90%.

Turning to `Cn1ncc(-c2nc(N[C@H]3CC[C@H](NCC(=O)NCCOCCOCCOCCNCc4cc5c(s4)C(=O)N(C4CCC(=O)NC4=O)C5)CC3)ncc2F)c1CC1CC1` (stereo partly drawn) [Compound 62, 2-(((1r,4r)-4-((4-(5-(cyclopropylmethyl)-1-methyl-1H-pyrazol-4-yl)-5-fluoropyrimidin-2-yl)amino)cyclohexyl)amino)-N-(1-(5-(2,6-dioxopiperidin-3-yl)-6-oxo-5,6-dihydro-4H-thieno[2,3-c]pyrrol-2-yl)-5,8,11-trioxa-2-azatridecan-13-yl)acetamide], the viability at 1 µM was > 90%.

`Cn1ncc(-c2nc(N[C@H]3CC[C@H](NCCCCCCCNCC(=O)NCc4cc5c(s4)C(=O)N(C4CCC(=O)NC4=O)C5)CC3)ncc2Cl)c1CC1CC1` (stereo partly drawn) [Compound 53, 2-((7-(((1r,4r)-4-((5-chloro-4-(5-(cyclopropylmethyl)-1-methyl-1H-pyrazol-4-yl)pyrimidin-2-yl)amino)cyclohexyl)amino)heptyl)amino)-N-((5-(2,6-dioxopiperidin-3-yl)-6-oxo-5,6-dihydro-4H-thieno[2,3-c]pyrrol-2-yl)methyl)acetamide]: the viability at 1 µM is > 90%.

Turning to `Cn1ncc(-c2nc(N[C@H]3CC[C@H](NCCCCCNCC(=O)NCc4cc5c(s4)C(=O)N(C4CCC(=O)NC4=O)C5)CC3)ncc2Cl)c1CC1CC1` (stereo partly drawn) [Compound 60, 2-((5-(((1r,4r)-4-((5-chloro-4-(5-(cyclopropylmethyl)-1-methyl-1H-pyrazol-4-yl)pyrimidin-2-yl)amino)cyclohexyl)amino)pentyl)amino)-N-((5-(2,6-dioxopiperidin-3-yl)-6-oxo-5,6-dihydro-4H-thieno[2,3-c]pyrrol-2-yl)methyl)acetamide], the viability at 1 µM was > 90%.
